Results reported in patent publication US9221783B2, “Phenylalkyl sulfamate compound and muscle relaxant composition comprising the same” (BIO-PHARM SOLUTIONS CO., LTD., priority 2012, dated 2015).

tested on: male mice (ICR); assay: Muscle relaxation activity by grip strength test (forelimbs); format: in vivo; details: Mus musculus, ip, intraperitoneal, ED50 = 50% of muscle relaxation activity compared to vehicle only (100%), determined at 0.5 h (time of maximum effect)
Method: For testing, male mice (ICR) were purchased from ORIENT BIO INC. (Korea), divided into several groups with 6 mice in each group, and were adapted for 4-5 days. The mice having the weight ranging from 19 g to 26 g were employed for the test. The pharmacological effect of the test compounds on muscle relaxation was evaluated by Rotarod test, grip strength test, and muscular force (wire hang) test. All mice were adapted to the test environment at one hour before starting the tests. The pharmacological effects of all the test compounds were evaluated by administration through peritoneal cavity of the mice (10 ul/g, bw).
The test was conducted before and after administration of the compounds to evaluate the effects thereof. […] The mouse was made to grip the rod with its forelimbs, and its tail was pulled, where the force at which the mouse detached from the rod was recorded. The instrument indicated the force in grams. All of the mice were given 3 opportunities for test, and the 3 highest values among the test opportunities were selected and the mean value was used as the test result. […] Psychopharmacol. 110: 92-96’.
The obtained results are shown as mean±sem. The difference between the groups was statistically analyzed by ANOVA, and then, further examined by Dunnett's test or Bonferroni test. If p is less than 0.05, it was determined that the difference between the groups had statistical significance.

| Compound | ED50 [mg/kg] |
| --- | --- |
| CC1(C)O[C@H](c2ccccc2I)[C@@H](COS(N)(=O)=O)O1 [Example 27, ((4R,5R)-5-(2-iodophenyl)-2,2-dimethyl-1,3-dioxolan-4-yl)methyl sulfamate] | 378 |

same assay, conditions: intraperitoneal, dose 200 (unit not given)

| Compound | Grip strength, percentage compared to the vehicle only (100%) |
| --- | --- |
| CCC1(CC)O[C@@H](COS(N)(=O)=O)[C@H](c2ccccc2Cl)O1 [Example 8, ((4S,4S)-5-(2-chlorophenyl)-2,2-diethyl-1,3-dioxolan-4-yl)methyl sulfamate] | 200 (59.6%) |
| NS(=O)(=O)OC[C@@H]1OC2(CCCC2)O[C@H]1c1ccccc1Cl [Example 10, ((2S,3S)-3-(2-chlorophenyl)-1,4-dioxaspiro[4,4]nonan-2-yl)methyl sulfamate] | 200 (91.2%) |
| NS(=O)(=O)OC[C@@H]1OC2(CCCCC2)O[C@H]1c1ccccc1Cl [Example 12, ((2S,3S)-3-(2-chlorophenyl)-1,4-dioxaspiro[4,5]decan-2-yl)methyl sulfamate] | 200 (57.7%) |
| CC1(C)O[C@@H](COS(N)(=O)=O)[C@H](c2ccc(Cl)cc2Cl)O1 [Example 40, ((4S,5S)-5-(2,4-dichlorophenyl)-2,2-dimethyl-1,3-dioxolan-4-yl)methyl sulfamate] | 200 (79.3%) |
| CC1(C)O[C@@H](COS(N)(=O)=O)[C@H](c2c(Cl)cccc2Cl)O1 [Example 52, ((4S,5S)-5-(2,6-dichlorophenyl)-2,2-dimethyl-1,3-dioxolan-4-yl)methyl sulfamate] | 200 (28.2%) |
| CCC1(CC)O[C@@H](COS(N)(=O)=O)[C@H](c2ccccc2N)O1 [Example 70, ((4S,5S)-5-(2-aminophenyl)-2,2-diethyl-1,3-dioxolan-4-yl)methyl sulfamate] | 200 (78.6%) |
| Nc1ccccc1[C@@H]1OC2(CCCC2)O[C@H]1COS(N)(=O)=O [Example 72, ((2S,3S)-3-(2-aminophenyl)-1,4-dioxaspiro[4,4]nonan-2-yl)methyl sulfamate] | 200 (87.0%) |
| Nc1ccccc1[C@@H]1OC2(CCCCC2)O[C@H]1COS(N)(=O)=O [Example 74, ((2S,3S)-3-(2-aminophenyl)-1,4-dioxaspiro[4,5]decan-2-yl)methyl sulfamate] | 200 (88.1%) |
| Nc1ccccc1[C@@H]1OC(c2ccccc2)O[C@H]1COS(N)(=O)=O (stereo partly drawn) [Example 76, ((4S,5S)-5-(2-aminophenyl)-2-phenyl-1,3-dioxolan-4-yl)methyl sulfamate] | 200 (78.5%) |
| NS(=O)(=O)OC[C@@H]1OC(=O)O[C@H]1c1ccccc1[N+](=O)[O-] [Example 90, ((4S,5S)-5-(2-nitrophenyl)-2-oxo-1,3-dioxolan-4-yl)methyl sulfamate] | 200 (43.8%) |
| Cc1ccccc1[C@@H]1OC(C)(C)O[C@H]1COS(N)(=O)=O [Example 92, ((4S,5S)-5-(2-methylphenyl)-2,2-dimethyl-1,3-dioxolan-4-yl)methyl sulfamate] | 200 (46.2%) |
| CNc1ccccc1[C@@H]1OC(C)(C)O[C@H]1COS(=O)(=O)NC [Example 104, ((4S,5S)-5-(2-methylaminophenyl)-2,2-dimethyl-1,3-dioxolan-4-yl)methyl methylsulfamate] | 200 (71.3%) |
| CC1(C)O[C@@H](COS(N)(=O)=O)[C@H](c2ccccc2)O1 [Example 106, ((4S,5S)-5-phenyl-2,2-dimethyl-1,3-dioxolan-4-yl)methyl sulfamate] | 200 (62.8%) |
| CCC1(CC)O[C@@H](COS(N)(=O)=O)[C@H](c2ccccc2)O1 [Example 108, ((4S,5S)-5-phenyl-2,2-diethyl-1,3-dioxolan-4-yl)methyl sulfamate] | 200 (66.8%) |
| NS(=O)(=O)OC[C@@H]1OC2(CCCC2)O[C@H]1c1ccccc1 [Example 110, ((2S,3S)-3-phenyl-1,4-dioxaspiro[4,4]nonan-2-yl)methyl sulfamate] | 200 (62.9%) |
| NS(=O)(=O)OC[C@@H]1OC2(CCCCC2)O[C@H]1c1ccccc1 [Example 112, ((2S,3S)-3-phenyl-1,4-dioxaspiro[4,5]decan-2-yl)methyl sulfamate] | 200 (33.2%) |
| CC1(C)O[C@H](CCOS(N)(=O)=O)[C@@H](Cc2ccccc2)O1 [Example 114, 2-((4R,5R)-5-benzyl-2,2-dimethyl-1,3-dioxolan-4-yl)ethyl sulfamate] | 200 (75.4%) |
| CCC1(CC)O[C@H](CCOS(N)(=O)=O)[C@@H](Cc2ccccc2)O1 [Example 116, 2-((4R,5R)-5-benzyl-2,2-diethyl-1,3-dioxolan-4-yl)ethyl sulfamate] | 200 (81.6%) |

| Compound | Grip strength, percentage compared to the vehicle only (100%) |
| --- | --- |
| NS(=O)(=O)OCC[C@H]1OC2(CCCC2)O[C@@H]1Cc1ccccc1 [Example 118, 2-((2R,3R)-3-benzyl-1,4-dioxaspiro[4,4]nonan-2-yl)ethyl sulfamate] | 200 (83.7%) |
| NS(=O)(=O)OCC[C@H]1OC2(CCCCC2)O[C@@H]1Cc1ccccc1 [Example 120, 2-((2R,3R)-3-benzyl-1,4-dioxaspiro[4,5]decan-2-yl)ethyl sulfamate] | 200 (80.5%) |
| CC1(C)O[C@H](COS(N)(=O)=O)[C@@H](Cc2ccccc2)O1 [Example 122, ((4R,5R)-5-benzyl-2,2-dimethyl-1,3-dioxolan-4-yl)methyl sulfamate] | 200 (61.6%) |
| CCC1(CC)O[C@H](COS(N)(=O)=O)[C@@H](Cc2ccccc2)O1 [Example 124, ((4R,5R)-5-benzyl-2,2-diethyl-1,3-dioxolan-4-yl)methyl sulfamate] | 200 (81.0%) |
| NS(=O)(=O)OC[C@H]1OC2(CCCC2)O[C@@H]1Cc1ccccc1 [Example 126, ((2R,3R)-3-benzyl-1,4-dioxaspiro[4,4]nonan-2-yl)methyl sulfamate] | 200 (76.7%) |
| NS(=O)(=O)OC[C@H]1OC2(CCCCC2)O[C@@H]1Cc1ccccc1 [Example 128, ((2R,3R)-3-benzyl-1,4-dioxaspiro[4,5]decan-2-yl)methyl sulfamate] | 200 (81.4%) |
| CC1(C)O[C@@H](CCOS(N)(=O)=O)[C@H](c2ccccc2)O1 [Example 130, 2-((4S,5S)-5-phenyl-2,2-dimethyl-1,3-dioxolan-4-yl)ethyl sulfamate] | 200 (91.4%) |
| CCC1(CC)O[C@@H](CCOS(N)(=O)=O)[C@H](c2ccccc2)O1 [Example 132, 2-((4S,5S)-5-phenyl-2,2-diethyl-1,3-dioxolan-4-yl)ethyl sulfamate] | 200 (25.7%) |
| NS(=O)(=O)OCC[C@@H]1OC2(CCCC2)O[C@H]1c1ccccc1 [Example 134, 2-((2S,3S)-3-phenyl-1,4-dioxaspiro[4,4]nonan-2-yl)ethyl sulfamate] | 200 (90.1%) |
| NS(=O)(=O)OCC[C@@H]1OC2(CCCCC2)O[C@H]1c1ccccc1 [Example 136, 2-((2S,3S)-3-phenyl-1,4-dioxaspiro[4,5]decan-2-yl)ethyl sulfamate] | 200 (80.8%) |
| CC1(C)O[C@H](CCOS(N)(=O)=O)[C@@H](Cc2ccccc2Cl)O1 [Example 138, 2-((4R,5R)-5-(2-chlorobenzyl)-2,2-dimethyl-1,3-dioxolan-4-yl)ethyl sulfamate] | 200 (70.1%) |
| CCC1(CC)O[C@H](CCOS(N)(=O)=O)[C@@H](Cc2ccccc2Cl)O1 [Example 140, 2-((4R,5R)-5-(2-chlorobenzyl)-2,2-diethyl-1,3-dioxolan-4-yl)ethyl sulfamate] | 200 (73.4%) |
| NS(=O)(=O)OCC[C@H]1OC2(CCCC2)O[C@@H]1Cc1ccccc1Cl [Example 142, 2-((2R,3R)-3-(2-chlorobenzyl)-1,4-dioxaspiro[4,4]nonan-2-yl)ethyl sulfamate] | 200 (66.8%) |
| NS(=O)(=O)OCC[C@H]1OC2(CCCCC2)O[C@@H]1Cc1ccccc1Cl [Example 144, 2-((2R,3R)-3-(2-chlorobenzyl)-1,4-dioxaspiro[4,5]decan-2-yl)ethyl sulfamate] | 200 (62.0%) |
| CC1(C)O[C@H](COS(N)(=O)=O)[C@@H](Cc2ccccc2Cl)O1 [Example 146, ((4R,5R)-5-(2-chlorobenzyl)-2,2-dimethyl-1,3-dioxolan-4-yl)methyl sulfamate] | 200 (79.2%) |
| CCC1(CC)O[C@H](COS(N)(=O)=O)[C@@H](Cc2ccccc2Cl)O1 [Example 148, ((4R,5R)-5-(2-chlorobenzyl)-2,2-diethyl-1,3-dioxolan-4-yl)methyl sulfamate] | 200 (70.2%) |
| NS(=O)(=O)OC[C@H]1OC2(CCCC2)O[C@@H]1Cc1ccccc1Cl [Example 150, ((2R,3R)-3-(2-chlorobenzyl)-1,4-dioxaspiro[4,4]nonan-2-yl)methyl sulfamate] | 200 (89.8%) |
